Laboratory results published in patent publication US20130011333A1, “Methods and Compositions for Nanoparticle-Mediated Cancer Cell-Targeted Delivery” (Board of Regents, The University of Texas System, priority 2010, published 2013).

Assays:
p73 = target: T1, p73 (Homo sapiens, UniProt O15350); settings: reference [28]; cited from earlier work
T1 sequence (O15350 1-499 isoform O15350-2): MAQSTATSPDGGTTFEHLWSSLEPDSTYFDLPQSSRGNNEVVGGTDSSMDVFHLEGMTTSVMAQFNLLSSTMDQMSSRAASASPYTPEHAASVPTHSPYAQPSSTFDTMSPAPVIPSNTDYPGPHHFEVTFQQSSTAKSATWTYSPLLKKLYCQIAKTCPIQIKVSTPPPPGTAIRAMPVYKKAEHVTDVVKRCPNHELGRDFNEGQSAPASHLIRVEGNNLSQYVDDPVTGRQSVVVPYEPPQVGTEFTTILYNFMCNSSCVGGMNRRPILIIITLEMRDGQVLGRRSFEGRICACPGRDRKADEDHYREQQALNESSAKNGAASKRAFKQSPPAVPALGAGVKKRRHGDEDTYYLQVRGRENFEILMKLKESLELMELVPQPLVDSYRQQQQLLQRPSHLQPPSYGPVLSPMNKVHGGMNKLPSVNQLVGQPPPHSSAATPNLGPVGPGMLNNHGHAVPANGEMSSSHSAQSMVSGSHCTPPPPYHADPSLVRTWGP

MCF-10A cells [1] = experiment: Western analysis of p53 pathway; type: cell-based, human; settings: 4Gy, 6 h post-IR
Experimental: (§1) A. Cells as in FIG. 6 were subject to Western analysis using the indicated antibodies. P53/p73OD expressing MDA-MB-231 or MCF-10A cells were either mock or irradiated with 4Gy. The cells were either harvested at 6 h post-IR for Western analysis (B) or at 24 h for FACS analysis (C). The results are mean±SE from three independent experiments.
(§2) To understand potential mechanisms underlying the differential sensitivity of cancer cells and non-transformed cells to p53/p73OD expression, p53 activity was examined further. […] The result is in line with the notion that cancer cells, but not normal cells, harbor strong intrinsic p53-activating signals. The low activity of p53/p73OD in MCF-10A cells led to the question of whether the chimera could be activated by exogenous stimuli such as radiation.

p53 = p53 (Homo sapiens, UniProt P04637); settings: reference [28]; cited from earlier work
Sequence of p53 (P04637 whole entry): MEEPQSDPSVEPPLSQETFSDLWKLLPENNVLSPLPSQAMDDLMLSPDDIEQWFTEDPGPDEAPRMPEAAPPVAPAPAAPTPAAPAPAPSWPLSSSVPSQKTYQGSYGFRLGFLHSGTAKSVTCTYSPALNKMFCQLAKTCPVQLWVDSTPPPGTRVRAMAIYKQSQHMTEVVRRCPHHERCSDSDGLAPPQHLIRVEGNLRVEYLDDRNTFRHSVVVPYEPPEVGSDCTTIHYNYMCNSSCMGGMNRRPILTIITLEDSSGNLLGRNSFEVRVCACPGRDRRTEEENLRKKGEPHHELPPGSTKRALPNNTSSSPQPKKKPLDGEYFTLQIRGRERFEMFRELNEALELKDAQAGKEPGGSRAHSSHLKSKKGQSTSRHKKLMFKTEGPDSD

MCF-10A cells [2] = experiment: Colony formation assay; type: cell-based, human; settings: expression level that markedly inhibits MDA-MB-231 growth
Experimental: FIG. 6. MCF-10A cells are less sensitive to a moderate level of p53/p73OD expression. MCF-10A cells with MDA-MB-231 cells as controls were transfected with the indicated vectors (0.5 μg) and subjected to colony formation assay as in FIG. 5. Western blot was performed in parallel to determine the level of p53/p73OD expression.
As a result, the response of normal cells to a moderate level of p53/p73OD expression is likely to differ from that of cancer cells. This was tested by comparing MDA-MB-231 cells and MCF-10A cells (a non-transformed human breast epithelial cell line), using a similar colony formation assay.

MDA-MB-231 cells [3] = experiment: Colony formation assay; type: cell-based, human; settings: MDA-MB-231 cells expressing high level of mutant p53, transfected vector
[4] = tested on: MDA-MB-231 cells stably expressing Pg13-GFP; experiment: Pg13-GFP reporter of p53 activation; type: cell-based, human; settings: delivered with GLU-PEG-PEI, 0.2 μg DNA/60-mm dish, 24 h
Experimental: The cells were fixed 24 h later using 2% formalin and stained with DAPI dye. The top panels show the GFP expression. The bottom panels show cell nuclei detected by DAPI staining.
To facilitate the detection of p53 activation in situ, a Pg13-GFP system was developed in which 13 repeats of a canonical p53 responsive element were cloned to drive the expression of GFP protein. An absolute dependency of the GFP expression on p53 was verified with p53-null H1299 cells. […] The cells were fixed 24 h later.

MDA-MB-231 cells [5] = experiment: FACS (flow cytometry) analysis after irradiation; type: cell-based, human; settings: MDA-MB-231 cells expressing p53/p73OD, 4Gy, 24 h
Experimental: as §1, §2

MCF-10A cells [6] = experiment: FACS (flow cytometry) analysis after irradiation; type: cell-based, human; settings: MCF-10A cells expressing p53/p73OD, 4Gy, 24 h
Experimental: as §1, §2

MDA-MB-231 cells [7] = experiment: Western analysis of p53 pathway; type: cell-based, human
Experimental: After selection with puromycin, the cells were subjected to colony formation assay. The data are means±SE from three separate experiments (A). Western analysis was performed with cells that were harvested at 48 h pos-selection and probed using the indicated antibodies (B).
as §1
The present invention utilizes a p53/p73 chimera to circumvent this OD-mediated inactivation by mutant p53. A series of p53/p73 chimeric proteins were generated by swapping corresponding domains of p53 and p73 [28]. […] A crystal structure study has confirmed this observation. […] This is of particular significance considering the dominant-negative and gain-of-function activities of mutant p53 that are primarily responsible for the oncogenic function.
as §2

p53/p73OD: human p53 protein in which amino acids 318 to 364 are replaced with amino acids 346-390 of p73 (the oligomerization domain)
association with p73 (p73): associates
phosphorylation after IR (MCF-10A cells [1]): markedly induced
binding to p53 (p53): does not bind
cell growth (colony formation) (MCF-10A cells [2]): did not significantly impact the growth
cell growth (colony formation) (MDA-MB-231 cells [3]): effectively inhibited cell growth
p53 transcription activity (GFP expression) [4]: increase of p53 transcription activity
G1 cell cycle arrest after IR (MDA-MB-231 cells [5]): little G1 cell cycle arrest
sub-G1, or apoptotic population after IR (MDA-MB-231 cells [5]): marked increase
G1 cell cycle arrest after IR (MCF-10A cells [6]): significant G1 cell cycle arrest
PUMA, MDM2 and p21 expression (MDA-MB-231 cells [7]): robust induction
phosphorylation after IR (MDA-MB-231 cells [7]; 4Gy, 6 h post-IR): markedly induced
mutant p53 protein level (MDA-MB-231 cells [7]; Western, 48 h post-selection): significant decrease
phosphorylation (anti-Sp15p53 Western) (MDA-MB-231 cells [7]; no irradiation): phosphorylated
